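How tested: cells in 96-well plates exposed to compound for 48 hours at five concentrations. GI50 is the concentration that inhibits growth by half.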 Activity calls are given as the source filed them. Cut-off read from the data, not from the text of the source: active = GI50 up to about 1.1 µM and inactive = higher.
What was measured:
Assay in all cases: NCI-60 cell line screen, 48 h
ACHN = system: ACHN
EKVX = system: EKVX
HL-60 = system: HL-60
HOP-62 = system: HOP-62
IGROV-1 = system: IGROV-1
K562 = system: K562
LOX IMVI = system: LOX IMVI
M14 = system: M14
MDA-N = system: MDA-N
NCI-H522 = system: NCI-H522
NCI/ADR-RES = system: NCI/ADR-RES
OVCAR-8 = system: OVCAR-8
RXF 393 = system: RXF 393
SK-MEL-5 = system: SK-MEL-5
SK-OV-3 = system: SK-OV-3
SN12C = system: SN12C
TK-10 = system: TK-10
UO-31 = system: UO-31
HOP-92 = system: HOP-92

Measured: GI50

C=C(Br)CN(CC(=C)Br)C(C)=O
inactive: ACHN > 100 µM | EKVX > 100 µM | HL-60 > 100 µM | HOP-62 > 100 µM | IGROV-1 > 100 µM | K562 > 100 µM | LOX IMVI > 100 µM | M14 > 100 µM | MDA-N > 100 µM | NCI-H522 > 100 µM | NCI/ADR-RES > 100 µM | OVCAR-8 > 100 µM | RXF 393 > 100 µM | SK-MEL-5 > 100 µM | SK-OV-3 > 100 µM | SN12C > 100 µM | TK-10 > 100 µM | UO-31 > 100 µM

O=C(O)[C@@H]1[C@H](C(=O)O)[C@H](C(=O)O)C[C@@H]1C(=O)O
inactive: ACHN > 100 µM | EKVX > 100 µM | HOP-62 > 100 µM | HOP-92 > 100 µM | IGROV-1 > 100 µM | K562 > 100 µM | LOX IMVI > 100 µM | M14 > 100 µM | MDA-N > 100 µM | NCI-H522 > 100 µM | NCI/ADR-RES > 100 µM | OVCAR-8 > 100 µM | RXF 393 > 100 µM | SK-MEL-5 > 100 µM | SK-OV-3 > 100 µM | SN12C > 100 µM | TK-10 > 100 µM | UO-31 > 100 µM

Cc1c(Cl)c(S(N)(=O)=O)cc(S(N)(=O)=O)c1NC(=O)c1ccc(Cl)cc1
inactive: ACHN > 100 µM | HL-60 > 100 µM | HOP-62 > 100 µM | HOP-92 > 100 µM | IGROV-1 > 100 µM | K562 > 100 µM | LOX IMVI > 100 µM | M14 > 100 µM | MDA-N > 100 µM | NCI-H522 > 100 µM | NCI/ADR-RES > 100 µM | OVCAR-8 > 100 µM | RXF 393 > 100 µM | SK-MEL-5 > 100 µM | SK-OV-3 > 100 µM | SN12C > 100 µM | TK-10 > 100 µM | UO-31 > 100 µM

O=C(O[C@H](/C=C/c1ccccc1)P1(=O)N(Cc2ccccc2)[C@H]2CCCC[C@@H]2N1Cc1ccccc1)c1ccccc1
inactive: ACHN 4.56 µM | EKVX 4.56 µM | HL-60 2.95 µM | HOP-62 5.51 µM | HOP-92 1.99 µM | IGROV-1 3.21 µM | K562 4.2 µM | LOX IMVI 3.32 µM | M14 4.5 µM | MDA-N 3.52 µM | NCI-H522 3.48 µM | NCI/ADR-RES 3.05 µM | OVCAR-8 3.69 µM | SK-MEL-5 1.87 µM | SK-OV-3 5.85 µM | SN12C 3.15 µM | TK-10 > 100 µM | UO-31 4.61 µM

CCC1(CC)C(=O)N(C(=O)c2ccc(Cl)cc2)N(C(=O)c2ccccc2Cl)C1=O
inactive: ACHN 36.1 µM | EKVX 4.58 µM | HL-60 37.7 µM | HOP-62 46 µM | IGROV-1 3.5 µM | K562 45.7 µM | LOX IMVI 21 µM | M14 > 100 µM | MDA-N 39.7 µM | NCI-H522 14.4 µM | NCI/ADR-RES 28.3 µM | OVCAR-8 89.9 µM | RXF 393 > 100 µM | SK-MEL-5 75 µM | SK-OV-3 > 100 µM | SN12C 45.1 µM | TK-10 31.2 µM | UO-31 > 100 µM

Oc1ccc2ccccc2c1OCc1nnc(CCCCCCCCc2nnc(COc3c(O)ccc4ccccc34)o2)o1
inactive: ACHN > 100 µM | EKVX > 100 µM | HOP-92 > 100 µM | IGROV-1 > 100 µM | K562 > 100 µM | M14 > 100 µM | MDA-N > 100 µM | NCI-H522 > 100 µM | NCI/ADR-RES > 100 µM | RXF 393 > 100 µM | SK-MEL-5 > 100 µM | SK-OV-3 > 100 µM | SN12C > 100 µM | TK-10 > 100 µM | UO-31 > 100 µM

COc1ccc(CNc2nc3cc(C(F)(F)F)ccc3nc2C(=O)O)cc1
inactive: ACHN 29.4 µM | EKVX 23.6 µM | HOP-62 21.4 µM | HOP-92 20.3 µM | IGROV-1 27.4 µM | K562 24.7 µM | LOX IMVI 19.4 µM | M14 22.4 µM | MDA-N 27.7 µM | NCI/ADR-RES 24.3 µM | OVCAR-8 32.3 µM | SK-MEL-5 12.3 µM | SK-OV-3 40.4 µM | SN12C 21.4 µM | UO-31 17.8 µM

CN(C)CCCN1C(=O)N(CCCN(C)C)c2c3cc(O)ccc3nc3c([N+](=O)[O-])ccc1c23
inactive: ACHN 16.6 µM | HOP-62 17.2 µM | HOP-92 4.82 µM | IGROV-1 4.57 µM | K562 4.99 µM | LOX IMVI 10.4 µM | M14 32.7 µM | MDA-N 37.3 µM | NCI-H522 6.92 µM | NCI/ADR-RES 92.9 µM | OVCAR-8 15.8 µM | RXF 393 11.9 µM | SK-MEL-5 15.5 µM | SK-OV-3 32.7 µM | SN12C 20 µM | TK-10 21.3 µM | UO-31 20.5 µM

O=C(c1ccccc1)c1c(-c2ccccc2)[nH]n(-c2ccc([N+](=O)[O-])cc2)c(=O)c1=O
inactive: ACHN 99.1 µM | EKVX 91 µM | HL-60 > 100 µM | HOP-62 > 100 µM | HOP-92 16.8 µM | IGROV-1 > 100 µM | K562 41.5 µM | M14 > 100 µM | MDA-N > 100 µM | NCI-H522 23.4 µM | NCI/ADR-RES 49.5 µM | OVCAR-8 31.1 µM | RXF 393 > 100 µM | SK-MEL-5 > 100 µM | SK-OV-3 36.9 µM | SN12C 57.3 µM | TK-10 91.8 µM | UO-31 32.1 µM

CC12Nc3c(Cl)cc(Cl)cc3N1C(=O)c1ccccc12 (stereo not drawn)
inactive: ACHN > 100 µM | EKVX 57 µM | HL-60 51.6 µM | HOP-62 > 100 µM | HOP-92 17.9 µM | IGROV-1 92.3 µM | K562 > 10 µM | LOX IMVI 96.6 µM | MDA-N > 100 µM | NCI-H522 97.1 µM | NCI/ADR-RES 91.8 µM | OVCAR-8 > 100 µM | RXF 393 78.3 µM | SK-MEL-5 > 100 µM | SK-OV-3 > 100 µM | SN12C > 100 µM | TK-10 42.2 µM | UO-31 52.7 µM

c1ccc2[nH]c3[nH]c4[nH]c5ccccc5[nH]c4[nH]c3[nH]c2c1
inactive: ACHN > 100 µM | EKVX > 100 µM | HL-60 > 100 µM | HOP-62 > 100 µM | IGROV-1 > 100 µM | K562 > 100 µM | LOX IMVI > 100 µM | M14 > 100 µM | MDA-N > 100 µM | NCI-H522 > 100 µM | NCI/ADR-RES > 100 µM | OVCAR-8 > 100 µM | RXF 393 > 100 µM | SK-MEL-5 > 100 µM | SK-OV-3 > 100 µM | SN12C > 100 µM | TK-10 > 100 µM | UO-31 > 100 µM

CC(C)C1=CC2=C(C(=O)C1=O)C13CCCC(C)(C)C1CC2OC3=O (stereo not drawn)
inactive: ACHN 19.1 µM | EKVX 16.2 µM | HL-60 15.1 µM | HOP-92 19 µM | IGROV-1 17.3 µM | K562 3.64 µM | LOX IMVI 20.1 µM | M14 24 µM | MDA-N 17.9 µM | NCI-H522 11.3 µM | NCI/ADR-RES 18.9 µM | OVCAR-8 19.2 µM | SK-MEL-5 25.2 µM | SK-OV-3 59.3 µM | SN12C 21.4 µM | TK-10 14.8 µM | UO-31 19.4 µM

O=c1c2ccccc2n2n1Cc1ccccc1C2
inactive: ACHN > 100 µM | EKVX 35.6 µM | HL-60 > 100 µM | HOP-62 > 100 µM | HOP-92 > 100 µM | IGROV-1 > 100 µM | K562 > 100 µM | LOX IMVI > 100 µM | MDA-N > 100 µM | NCI-H522 > 100 µM | NCI/ADR-RES > 100 µM | OVCAR-8 > 100 µM | RXF 393 > 100 µM | SK-MEL-5 > 100 µM | SK-OV-3 > 100 µM | SN12C > 100 µM | TK-10 > 100 µM | UO-31 86.3 µM

CSc1c(C#N)c(N)n(-c2ccc(C)cc2)c(=O)c1C#N
inactive: EKVX > 100 µM | HL-60 > 100 µM | IGROV-1 > 100 µM | K562 > 100 µM | LOX IMVI 88.9 µM | M14 > 100 µM | MDA-N > 100 µM | NCI-H522 98.9 µM | NCI/ADR-RES > 100 µM | OVCAR-8 > 100 µM | RXF 393 > 100 µM | SK-MEL-5 > 100 µM | SK-OV-3 > 100 µM | SN12C > 100 µM | TK-10 > 100 µM | UO-31 50.4 µM

CN1N=C(c2ccncc2)OC1c1ccc(Cl)cc1Cl (stereo not drawn)
inactive: ACHN 74.6 µM | EKVX 41.7 µM | HL-60 41.2 µM | HOP-62 > 100 µM | IGROV-1 > 100 µM | K562 50.5 µM | LOX IMVI > 100 µM | M14 95.3 µM | MDA-N > 100 µM | NCI-H522 72.6 µM | NCI/ADR-RES 71.8 µM | OVCAR-8 > 100 µM | RXF 393 > 100 µM | SK-MEL-5 65.6 µM | SK-OV-3 93.3 µM | SN12C 75.3 µM | TK-10 > 100 µM | UO-31 93.5 µM

ON(CCc1ccccn1)Cc1ccccc1
inactive: ACHN > 100 µM | EKVX > 100 µM | HOP-62 > 100 µM | HOP-92 > 100 µM | IGROV-1 > 100 µM | K562 31.7 µM | LOX IMVI > 100 µM | M14 > 100 µM | MDA-N > 100 µM | NCI-H522 > 100 µM | NCI/ADR-RES > 100 µM | OVCAR-8 > 100 µM | RXF 393 > 100 µM | SK-MEL-5 > 100 µM | SK-OV-3 > 100 µM | SN12C > 100 µM | TK-10 > 100 µM | UO-31 > 100 µM
